Data on 1 compound can be found in US9101634B2, “Application of 2, 3-dihydro-3-hydroxymethyl-6-amino-[1,4]-benzoxazine in preparation of drugs inducing embryonic stem cells to differentiate to vascular endothelial cells” (SHANDONG UNIVERSITY, priority 2010, dated 2015).

Entries after “also recorded” stand apart in the source; their conditions may differ.

Test [1] deals with mouse embryonic stem cells. Put plainly: Influence on mouse embryonic stem cell morphology (inverted phase contrast microscope). The class given is cell-based. The following applies: ten days. The protocol:
The embryonic stem cells were evenly grown in a 24-well plate, a normal group was set after the cells adhered on the wall: the normal group was cultured under the condition of differentiation culture medium (after removal of leukemia inhibitory factor from normal culture medium); solvent control group: the group was cultured after DMSO was added under the culture condition of differentiation culture medium; experimental group: the group was cultured after 2,3-dihydro-3-hydroxymethyl-6-amino-[1,4]-benzoxazine with the concentration of 0.5 μM˜40 μM was added under the culture condition of differentiation culture medium. The culture conditions: 37° C., CO2 incubator box for cultivation. The culture medium should be replaced everyday in a timing mode, the morphological changes were observed under an inverted phase contrast microscope until the tenth day.
(§1) The embryonic stem cells were evenly grown in a 24-well plate according to density of 2×10^4 cells/well, DMEM (high glucose) containing leukemia inhibitory factor, L-glutamine, streptomycin, β-mercaptoethanol, non-essential amino acids, nucleotides and 15% PBS was used for culturing for 24 hours, the waste liquid was discarded after the cells adhered on the wall, and the cells were cleaned with 1×PBS. A normal group was set: the normal group was cultured under the culture condition that leukemia inhibitory factor was removed; solvent control group: the group was cultured after DMSO was added under the culture condition that leukemia inhibitory factor was removed; experimental group: the group was cultured after 2,3-dihydro-3-hydroxymethyl-6-amino-[1,4]-benzoxazine with the concentration of 0.5 μM, 1 μM, 5 μM, 10 μM, 20 μM, 30 μM and 40 μM was added under the culture condition that leukemia inhibitory factor was removed. The culture conditions: 37° C., CO2 incubator box for cultivation. The culture medium should be replaced everyday in a timing mode, and the cells were continuously cultured for ten days and then were observed under an inverted phase contrast microscope.

Test [2] has as its system embryonic stem cells. Put plainly: Function detection of phagocytosis of Dil-Ac-LDL. The format is cell-based, mouse. The note with it: cells induced for ten days, six hours with Dil-Ac-LDL. The protocol: The embryonic stem cells after induction for ten days were seeded in 24-well paved with gelatin, placed at 37° C., and cultured in CO2 incubator. After the cells adhered on the wall, the Dil-Ac-LDL diluted with medium culture was added into the culture plates, placed at 37° C., and cultured in CO2 incubator for six hours. The normal group was set: embryonic stem cells which were cultured for ten days under the culture condition of differentiation culture medium; Solvent control group: the embryonic stem cells which were cultured for ten days after DMSO was added under the culture condition of differentiation culture medium; experimental group: the embryonic stem cells which were cultured for ten days after 2,3-dihydro-3-hydroxy methyl-6-amino-[1,4]-benzoxazine with the concentration of 0.5 μM˜40 μM was added under the culture condition of differentiation culture medium. […]
The embryonic stem cells were evenly grown in a 24-well plate according to the density of 2×10^4 cells/well and cultured for 24 hours with DMEM (high glucose) containing leukemia inhibitory factor, L-glutamine, streptomycin, β-mercaptoethanol, non-essential amino acids, nucleotides and 15% FBS, the waste liquid was discarded after the cells adhered on the wall, and the cells were cleaned with 1×PBS. […] The conditions of phagocytosing Dil-Ac-LDL were detected with laser confocal microscopy.

Test [3] relates to vascular endothelial marker CD31 in embryonic stem cells. Kind of test: Detection of vascular endothelial cell marker CD31 (Western blot). The format is cell-based, mouse. The note with it: induction for 10 days. The protocol:
The embryonic stem cells induced by 2,3-dihydro-3-hydroxymethyl-6-amino-[1,4]-benzoxazine with the concentration of 0.5 μM˜40 μM for ten days were cracked, and total cellular protein was distilled. The solvent control group was set: the group was cultured after DMSO was added under the culture condition of differentiation culture medium; experimental group: the group was cultured after 2,3-dihydro-3-(hydroxymethyl)-6-Amino-[1,4]-benzoxazine with the concentration of 0.5 μM˜40 μM under the culture condition of differentiation culture medium. The extracted embryonic stem cells were used for Western blot experiment to detect the expression of vascular endothelial marker CD31.
The embryonic stem cells were evenly grown in a 6-well plate according to the density of 2×10^4 cells/well, and cultured for 24 hours with DMEM (high glucose) containing leukemia inhibitory factor, L-glutamine, streptomycin, β-mercaptoethanol, non-essential amino acids, nucleotides and 15% FBS, the waste liquid was discarded after the cells adhered on the wall, and the cells were cleaned with 1×PBS. The normal group was set: the group was cultured under the culture condition that leukemia inhibitory factor was removed; solvent control group: the group was cultured after DMSO was added under the culture condition that leukemia inhibitory factor was removed; experimental group: the group was cultured after 2,3-dihydro-3-hydroxymethyl-6-amino-[1,4]-benzoxazine with the concentration of 0.5 μM, 1 μM, 5 μM, 10 μM, 20 μM, 30 μM and 40 μM was added under the culture condition that leukemia inhibitory factor was removed. The culture conditions: 37° C., CO2 incubator box for cultivation. The culture medium should be replaced everyday, and the cells should be continuously cultured for ten days. The total protein of each group of cells was distilled with cell lysate. The protein samples were denatured for 5 min at 100° C., glue was removed then, the protein was transferred on the PVDF film after completion, the PBS/t solution containing 5% skimmed milk powder was used for sealing for one hour at room temperature. The PBS/t solution containing 3% bovine serum almbumin was used for diluting the primary anti-body (1:5000), and incubated overnight with the PVDF film containing target protein at 4° C. PBS/t was used for dipping the film twice 5 min each time. PBS was used for diluting the secondary antibody (1:5000) and the cells were incubated for one hour at room temperature, the film was dipped with PSB for three times and 5 min each time. ECL chromogenic reagent was evenly coated on the PVDF film containing target protein ad reacted for five minutes, excessive Chromogenic reagent was removed, and the cells were placed together with the film in a dark box for five minutes to finish film colour development.

The subject of test [4] is vascular endothelial cell marker Flk-1 in embryonic stem cells. Put plainly: Detection of vascular endothelial cell marker Flk-1 (immunohistochemistry, laser scanning confocal microscopy). The format is cell-based, mouse. The note with it: induction for 10 days. The protocol: The embryonic stem cells which were induced with 2,3-dihydro-3-hydroxymethyl-6-amino-[1,4]-benzoxazine with the concentration of 0.5 μM˜40 μM for 5 days and 10 days were evenly grown in 48-well plate and cultured for 24 hours in CO2 incubation chamber at 37° C., after the cells adhered on the wall, immunohistochemistry and laser scanning confocal microscopy were used for observing the expression of endothelial cell markers—Flk-1 The normal group was set: the group was cultured in under the culture condition of differentiation culture medium; solvent control group: the group was cultured after DMSO was added under the culture condition of differentiation culture medium; experimental group: the group was cultured after 2,3-dihydro-3-hydroxymethyl-6-amino-[1,4]-benzoxazine with the concentration of 0.5 μM˜40 μM was added under the culture condition of differentiation culture medium.
as §1, with “48-well” for “24-well”, “and cultured for 24 hours with” for “according to density of 2×10^4 cells/well,”, “FBS,” for “PBS was used for culturing for 24 hours,”, “The” for “A”, “the” for “the normal”, “cultivation.” for “cultivation. The culture medium should be replaced everyday in a timing mode, and the cells were continuously cultured for ten days and then were observed under an inverted phase contrast microscope.”

Test [5] has as its system embryonic stem cells. Kind of test: Detection of in vitro vascularization on Matrigel. The format is cell-based, mouse. The note with it: cells induced for ten days. The protocol:
The embryonic stem cells after induction for ten days were seeded in 24-well cell culture plate paved with Matrigel in advance, the detection culture system was replaced for the cells and placed at 37° C., the cells were cultured at CO2 incubator for 4 hours to 72 hours, and the vascularization conditions were regularly observed. The normal group was set: embryonic stem cells which were cultured for ten days under the culture conditions of differentiation culture medium; solvent control group: embryonic stem cells which were cultured for ten days after DMSO was added under the culture condition of differentiation culture medium. Experimental group: embryonic stem cells which were cultured for ten days after 2,3-dihydro-3-hydroxymethyl-6-amino-[1,4]-benzoxazine was added under the culture condition of differentiation culture medium.
The embryonic stem cells were evenly grown in a 24-well plate according to the density of 2×10^4 cells/well and cultured for 24 hours with DMEM (high glucose) containing leukemia inhibitory factor, L-glutamine, streptomycin, β-mercaptoethanol, non-essential amino acids, nucleotides and 15% FBS, the waste liquid was discarded after the cells adhered on the wall, and the cells were cleaned with 1×PBS. […]

Test [6] concerns mouse embryonic stem cells. Kind of test: Induction of mouse embryonic stem cells to differentiate to vascular endothelial cells (overall conclusion). The note with it: for differentiation of mouse embryonic stem cells to vascular endothelial cells: five to ten days, differentiation culture medium. The format is cell-based. From the text:
Cell biology and molecular biology methods were adopted to study and validate the function of the 2,3-dihydro-3-hydroxymethyl-6-amino-[1,4]-benzoxazine of the invention to induce embryonic stem cells to differentiate to vascular endothelial cells with the following experiments.

[7] abbreviates: 10 μM, listed as 2 3-dihydro-3-hydroxymethyl-6-amino-[1,4]-benzoxazine.

On to `Nc1ccc2c(c1)NC(CO)CO2` (centres unmarked) [2,3-dihydro-3-hydroxymethyl-6-amino-[1,4]-benzoxazine], for which the “cell morphology change to vascular endothelial cell form” value in test [1] (10 μM, differentiation culture medium without leukemia inhibitory factor) is “significant changes; also recorded: prominently prompt the embryonic stem cells to show the vascular endothelial form”. Besides, the “cell morphology change versus normal and solvent control groups” value in test [1] (1˜20 μM, differentiation culture medium without leukemia inhibitory factor) is recorded as “changed compared with the cell morphology of the control group; also recorded: changed compared with the cell form of the control group”. Further, in test [1] (other concentrations of the 0.5 μM˜40 μM range (outside 1˜20 μM)), the “cell form changes of other treatment groups” value was “relatively weak”. Besides, the “phagocytosis of Dil-Ac-LDL” value is given as “can phagocytose Dil-Ac-LDL” in the test on embryonic stem cells [2] (1 μM˜20 μM) and “particularly evident; also recorded: prominent effect of phagocytosing Dil-Ac-LDL; also recorded: prominently phagocytose Dil-Ac-LDL” with embryonic stem cells [2] (10 μM). The “expression of vascular endothelial cell marker CD31” value in test [3] (1 μM˜20 μM, versus solvent control, listed as 2 3-dihydro-3-hydroxymethyl-6-amino-[1,4]-benzoxazine) is “increased”; in test [3] (1 μM˜20 μM, versus solvent control, listed as 2,3-dihydro-3-(hydroxymethyl)-6-amino-[1,4]-benzoxazine), “increased expression of CD31”; in test [3] (10 μM), “more significant”; in test [3] (setting [7]) it was “stronger CD31 expression”. Also, the “expression of vascular endothelial cell marker Flk-1” value is given as “increased” in test [4] (1 μM˜20 μM), “more obvious” in test [4] (10 μM) and “stronger Flk-1 expression” in test [4] (setting [7]). The “formation of vessel-like structures on Matrigel” value with embryonic stem cells [5] (10 μM) is “particularly prominent vessel-like structures; also recorded: prominently form blood vessels in vitro; also recorded: prominently form blood vessels on Matrigel”; in the test on embryonic stem cells [5] (1˜20 μM) it was “form varying degrees of cavity-like vessel-like structures”. In addition, in test [6], the “optimal concentration for inducing differentiation to vascular endothelial cells” value is 10 µM. The “differentiation of mouse embryonic stem cells to vascular endothelial cells” value in test [6] (1 μM˜20 μM) is “prominently promote differentiation of mouse embryonic stem cells to vascular endothelial cells”; in test [6] (10 μM) it was “particularly prominent”.
